Values of other authors as cited in US20080019975A1, “Novel Regimens for Treating Diseases and Disorders” (BioAssets Development Corporation, priority 2006, published 2008).

Tested on: sciatica patients
Conditions: IV administration, blinded trial versus placebo saline infusion

Substance: infliximab
- difference between patients treated with the drug versus placebo saline infusion: failed to show a difference
